# Test results as given in ChEMBL document CHEMBL1142824, “Discovery of a novel, potent and selective human beta3-adrenergic receptor agonist” (Bioorg Med Chem Lett, 2005).
# Legend:
# [1] = molecular target: Beta-3 adrenergic receptor (Homo sapiens, UniProt P13945); assay: Agonistic activity was assessed by measuring cAMP accumulation in CHO cell lines expressing cloned human Beta-3 adrenergic receptor; type: functional, cell-based
# [2] = molecular target: Beta-1 adrenergic receptor (Homo sapiens, UniProt P08588)
# Description: Agonistic activity was assessed by measuring cAMP accumulation in CHO cell lines expressing cloned human Beta-1 adrenergic receptor
# [3] = Percent bioavailability after intravenous dose of 0.32 mg/kg; type: ADME, organism-based, Canis lupus familiaris; settings: dog, in vivo
# [4] = Half life of compound after intravenous dose of 1 mg/kg; type: ADME, organism-based; parameters: dose 1 mg/kg, route intravenous; settings: rat, in vivo
# [5] = Area under concentration-time curve after orally administered dose of 0.32 mg/kg; type: ADME, organism-based, Canis lupus familiaris; parameters: dose 0.32 mg/kg, route oral; settings: dog, in vivo, po
# [6] = Area under concentration-time curve after orally administered dose of 3.2 mg/kg; type: ADME, organism-based; parameters: dose 3.2 mg/kg, route oral; settings: rat, in vivo, po
# [7] = Half life of compound after intravenous dose of 0.32 mg/kg; type: ADME, organism-based, Canis lupus familiaris; parameters: dose 0.32 mg/kg, route intravenous; settings: dog, in vivo
# [8] = molecular target: Beta-2 adrenergic receptor (Homo sapiens, UniProt P07550); assay: Agonistic activity was assessed by measuring cAMP accumulation in CHO cell lines expressing cloned human Beta-2 adrenergic receptor; type: functional, cell-based
# [9] = molecular target: Beta-2 adrenergic receptor and beta-3 adrenergic receptor (Homo sapiens) (UniProt P07550+P13945); assay: Ratio of agonistic activity to produce cAMP by stimulating beta-2 and beta-3 adrenergic receptor in chinese hamster ovary cells; type: functional, cell-based
# [10] = Percent bioavailability after intravenous dose of 1 mg/kg; type: ADME, organism-based; settings: rat, in vivo
# [11] = Total clearance rate after intravenous dose of 0.32 mg/kg; type: ADME, organism-based, Canis lupus familiaris; parameters: dose 0.32 mg/kg, route intravenous; settings: dog, in vivo, read-out: CLtot
# [12] = Maximum plasma concentration after orally administered dose of 0.32 mg/kg; type: ADME, organism-based, Canis lupus familiaris; parameters: dose 0.32 mg/kg, route oral; settings: dog, po
# [13] = Total clearance rate after intravenous dose of 1 mg/kg; type: ADME, organism-based; parameters: dose 1 mg/kg, route intravenous; settings: rat, in vivo, read-out: CLtot
# [14] = Maximum plasma concentration after orally administered dose of 3.2 mg/kg; type: ADME, organism-based; parameters: dose 3.2 mg/kg, route oral; settings: rat, po
# Chain of Beta-1 adrenergic receptor (P08588 whole entry): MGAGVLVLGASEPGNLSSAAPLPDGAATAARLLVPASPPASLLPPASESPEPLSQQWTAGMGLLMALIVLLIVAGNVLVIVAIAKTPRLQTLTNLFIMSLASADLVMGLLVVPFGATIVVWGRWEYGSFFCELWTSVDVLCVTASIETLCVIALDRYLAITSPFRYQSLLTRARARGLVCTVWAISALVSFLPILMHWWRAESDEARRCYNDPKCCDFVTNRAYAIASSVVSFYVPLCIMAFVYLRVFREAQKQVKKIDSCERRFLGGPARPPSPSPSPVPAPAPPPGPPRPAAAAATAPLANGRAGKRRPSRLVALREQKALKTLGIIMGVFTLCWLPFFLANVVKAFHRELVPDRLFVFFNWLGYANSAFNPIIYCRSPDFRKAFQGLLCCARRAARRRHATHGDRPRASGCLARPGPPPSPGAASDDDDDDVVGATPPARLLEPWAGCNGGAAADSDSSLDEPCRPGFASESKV
# Chain of Beta-3 adrenergic receptor (P13945 whole entry): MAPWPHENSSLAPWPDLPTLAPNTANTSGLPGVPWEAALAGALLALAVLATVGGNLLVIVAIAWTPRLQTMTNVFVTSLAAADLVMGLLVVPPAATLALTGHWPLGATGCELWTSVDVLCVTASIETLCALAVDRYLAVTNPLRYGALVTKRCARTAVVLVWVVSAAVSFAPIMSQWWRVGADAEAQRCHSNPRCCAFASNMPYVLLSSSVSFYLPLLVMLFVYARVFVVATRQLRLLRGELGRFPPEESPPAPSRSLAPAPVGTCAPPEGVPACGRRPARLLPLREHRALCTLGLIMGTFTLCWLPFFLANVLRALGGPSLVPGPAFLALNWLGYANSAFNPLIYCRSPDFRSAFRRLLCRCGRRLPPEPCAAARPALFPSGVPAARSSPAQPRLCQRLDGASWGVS
# Chain of Beta-2 adrenergic receptor (P07550 whole entry): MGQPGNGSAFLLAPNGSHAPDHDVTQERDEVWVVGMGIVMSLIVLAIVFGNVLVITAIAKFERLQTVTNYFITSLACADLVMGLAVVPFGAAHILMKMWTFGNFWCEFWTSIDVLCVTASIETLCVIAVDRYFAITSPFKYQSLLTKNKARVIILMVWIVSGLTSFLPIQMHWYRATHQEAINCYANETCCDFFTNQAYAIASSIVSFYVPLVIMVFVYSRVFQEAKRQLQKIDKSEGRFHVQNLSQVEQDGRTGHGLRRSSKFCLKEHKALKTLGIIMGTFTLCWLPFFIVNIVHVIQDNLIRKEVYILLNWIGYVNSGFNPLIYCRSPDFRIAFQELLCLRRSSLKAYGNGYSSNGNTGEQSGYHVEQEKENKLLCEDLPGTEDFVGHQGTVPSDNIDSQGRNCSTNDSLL
EC50 [1] [nM],EC50 [2] [nM],SMILES,further results
74,–,O=C(Nc1ccccc1)Nc1ccc(C[C@@H](CO)NC[C@H](O)c2cccc(Cl)c2)cc1,–
1.5,1.3,O=C(Nc1ccc(C[C@@H](CO)NC[C@H](O)COc2ccccc2)cc1)Nc1cccc(C(=O)O)c1,–
0.5,20,O=C(Nc1ccccc1)Nc1ccc(C[C@@H](CO)NC[C@H](O)COc2ccccc2)cc1,bioavailability [3]: 20.3%; T1/2 [4]: 1.3 h; AUC [5]: 140 ng·h/mL; AUC [6]: 4.2 ng·h/mL; half-life [7]: 8.1 h; EC50 [8]: > 100 nM; Selectivity [9]: > 200; bioavailability [10]: 1.1%; clearance [11]: 24.2 mL/min/kg; Cmax [12]: 52.6 ng/mL; clearance [13]: 142 mL/min/kg; Cmax [14]: 4.2 ng/mL
1.1,12,COc1ccccc1NC(=O)Nc1ccc(C[C@@H](CO)NC[C@H](O)COc2ccccc2)cc1,–
2.5,2.2,COc1ccc(NC(=O)Nc2ccc(C[C@@H](CO)NC[C@H](O)COc3ccccc3)cc2)cc1,–
1.6,3.6,O=C(Nc1ccccc1)Nc1ccc(CCNC[C@H](O)COc2ccccc2)cc1,–

# More lines, now with the values behind:
SMILES,EC50 [1] [nM],EC50 [2] [nM],further results
CC(C)NC(=O)Nc1ccc(C[C@@H](CO)NC[C@H](O)COc2ccccc2)cc1,4.9,27,–
O=C(Nc1ccccc1)Nc1ccc(C[C@@H](CO)NC[C@H](O)COc2cccc3[nH]c4ccccc4c23)cc1,22,–,–
CCCNC(=O)Nc1ccc(C[C@@H](CO)NC[C@H](O)COc2ccccc2)cc1,8.3,51,–
O=C(Nc1ccc(C[C@@H](CO)NC[C@H](O)COc2ccccc2)cc1)Nc1cccc([N+](=O)[O-])c1,1,0.9,–
COc1cccc(NC(=O)Nc2ccc(C[C@@H](CO)NC[C@H](O)COc3ccccc3)cc2)c1,0.8,4,–
O=C(Nc1ccc(C[C@@H](CO)NC[C@H](O)COc2ccccc2)cc1)NC1CCCCC1,2.1,15,–
